Results from paper PMC7938888, “Antidepressant drugs act by directly binding to TRKB neurotrophin receptors” (Cell, 2021).

Assays:
GFP-TRKB = molecular target: T1, GFP-TRKB (Mus musculus, UniProt P15209); assay: Microscale thermophoresis (MST) in lysates of GFP-TRKB expressing HEK293T cells; format: binding; conditions: CHOL 10–100 μM, 15 min, HEK293T cell lysates; read-out: affinity of direct interaction with GFP-TRKB (MST)
T1 construct: wild-type GFP-tagged full length TRKB or the GFP-tagged Y433F TRKB mutant; host or cells: HEK293T
Method: Microscale Thermophoresis - MST - experiments were performed using Monolith NT.115 (Blue/Red) instrument (NanoTemper Technologies GmbH, Germany). The cell lysates of HEK293T cells expressing GFP-TRKB were used as a source of fluorescently labeled TRKB. HEK293T cells were transfected with GFP-fused TRKB as described and lysed 24h after transfection. […] The lysates of non-transfected HEK293T cells were used to evaluate background fluorescence, which appeared to be undetectable in current MST set up. […] The measurements were done in premium coated capillaries (NanoTemper Technologies GmbH, MO-K025) using LED source with 470nm and 50% infrared-laser power at 25°C. Hill model was used to evaluate binding affinity, each data point represents mean ΔFnorm values from four independent experiments. The bound fraction of the GFP-TRKB was determined and the fitting was performed using the Hill model method incorporated by the MO Affinity Analysis v2.3 software (NanoTemper Technologies).

mice = assay: Ocular dominance plasticity (monocular deprivation, intrinsic signal imaging); format: in vivo, mouse; conditions: adult mice, 10 mg/kg i.p. every second day for 8 days
Method: The “transparent skull” preparation was executed as described in literature ([Steinzeig et al., 2017]). Briefly, adult female mice (20-22 weeks old) were anesthetized via i.p. injection with a mixture containing: 0.05 mg/kg fentanyl (Hameln, Germany); 5 mg/kg midazolam (Hameln, Germany); 0.5 mg/kg medetomidine (Orion Pharma, Finland); diluted in saline (B Braun, Germany). The animals’ eyes were covered with protective-gel (Alcon, UK). The animal’s head was shaved and disinfected with ethanol and Betadine. The mouse head was then fixed on the stereotaxic frame and the temperature was maintained at 37°C. A mixture of lidocaine and adrenaline (Orion Pharma, Finland) was applied locally on the head and the skin was cut with spring scissors. The incision area was restricted 2 mm above the bregma and caudal edge of intraparietal bone. The scalp was removed and a focused air stream and a cotton swab were used to clean and stop bleeding. The periosteum was gently scratched away from the skull with an eye scalpel and the temporal muscles were pushed aside, in order to expose enough space around the area of interest to attach the metal holder. When the skull was smooth, white and dry, fat was removed from the skull rapidly by passing on it a cotton swab soaked in acetone and the air current was used to avoid its penetration into the bone. Then, with a metal stick, a thin layer of cyanoacrylate glue (Loctite 401, Henkel, Germany) was applied to the surface of the skull, in order to make the skull transparent. After waiting 10 minutes for the glue to dry, a first layer of acryl was applied on the skull surface with a brush. Acryl was used to prolong the life of the transparency and was prepared by stirring acrylic powder (EUBECOS, Germany) with methacrylate liquid (Densply, Germany) until a nail-polish consistency was reached. After 30 minutes, a second layer of acryl was applied and was left to dry overnight. Finally, the animals were injected s.c. with 5 mg/kg Carprofen (ScanVet, Nord Ireland) for postoperative analgesia and i.p. with a wake-up composed by: 1.2 mg/kg Naloxone (Orpha-Devel Handels und Vertriebs GmbH, Austria), opioid receptor antagonist; 0.5 mg/kg Flumazenil (Hameln, Germany), GABA-A receptor antagonist; 2.5 mg/kg Atipamezole (Vet Medic animal Health Oy, Finland), adrenergic receptor antagonist; diluted in saline (B Braun, Germany). The next day, isoflurane at 4% was used for a couple of minutes to induce the anesthesia and then it was reduced at 2% for the procedure. The acryl layer was polished only on the area of interest, using a hand drill with a polishing bit. […]
Optical imaging. The saturation of haemoglobin in the primary visual cortex of the right hemisphere was measured to assess cortical activity ([Cang et al., 2005]; [Kalatsky and Stryker, 2003]). […]

Sprague-Dawley rats = assay: BDNF-induced LTP in dentate gyrus of anesthetized rats; format: in vivo, rat; conditions: anesthetized rats, 2 μl of 1 ug/ul over 30 min
Method: In vivo electrophysiology. Intrahippocampal BDNF infusion was performed as described previously ([Messaoudi et al., 1998]). The experiments were carried out on 20 adult male Sprague-Dawley rats (15 weeks old, Janvier, France). Rats were housed in the animal facility for 1-week prior to the start of drug administration. […]
For electrophysiological experiments, rats were anesthetized with an intraperitoneal injection of urethane (U2500, Sigma-Aldrich) 1.5 g/kg body weight, positioned in a stereotaxic frame. The body temperature was constantly monitored and maintained at 37°C with an electric heating pad. Holes were drilled in the skull and a concentric bipolar stimulating electrode (Tip separation 500micrometers; SNEX 100; Rhodes Medical Instruments, Woodland Hills, CA) was positioned in the angular bundle for stimulation of the medial perforant path (7.9 mm posterior to bregma, 4.2 mm lateral to the midline, and 2.5 mm below the dura. […]
Responses were allowed to stabilize for 1 hour at a stimulation intensity that produced a population spike 30% of maximum. […] Evoked responses were recorded for 120 min post infusion. Recorded field potentials were amplified, filtered (0.1 Hz to 10 kHz), and digitized (25 kHz). Electrophysiological data was analyzed using Datawave Technologies Software company. […]

T1 sequence (P15209 32-821): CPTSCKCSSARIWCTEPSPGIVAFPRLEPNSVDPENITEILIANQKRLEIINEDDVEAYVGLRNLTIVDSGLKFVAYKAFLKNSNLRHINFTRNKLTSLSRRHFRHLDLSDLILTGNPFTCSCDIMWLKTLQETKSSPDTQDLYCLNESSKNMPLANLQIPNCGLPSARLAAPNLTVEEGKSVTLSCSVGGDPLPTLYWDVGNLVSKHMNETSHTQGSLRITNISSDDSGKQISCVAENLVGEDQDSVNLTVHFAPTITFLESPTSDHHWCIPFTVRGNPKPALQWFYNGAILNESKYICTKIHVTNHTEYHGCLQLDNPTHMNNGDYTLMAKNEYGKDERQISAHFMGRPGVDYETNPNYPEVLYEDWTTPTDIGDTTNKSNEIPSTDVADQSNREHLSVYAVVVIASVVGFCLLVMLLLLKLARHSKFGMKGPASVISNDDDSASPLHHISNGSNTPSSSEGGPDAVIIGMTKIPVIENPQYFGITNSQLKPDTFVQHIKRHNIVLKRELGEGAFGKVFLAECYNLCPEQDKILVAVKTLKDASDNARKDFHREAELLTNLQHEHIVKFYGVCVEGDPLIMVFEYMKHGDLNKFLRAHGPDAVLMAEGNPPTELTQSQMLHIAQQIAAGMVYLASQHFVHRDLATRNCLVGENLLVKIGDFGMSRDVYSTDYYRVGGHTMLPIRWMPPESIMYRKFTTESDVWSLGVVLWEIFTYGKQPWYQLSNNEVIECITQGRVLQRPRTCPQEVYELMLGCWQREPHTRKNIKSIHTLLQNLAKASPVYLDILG

CC(C)CCC[C@@H](C)[C@H]1CC[C@H]2[C@@H]3CC=C4C[C@@H](O)CC[C@]4(C)[C@H]3CC[C@]12C [CHOL, cholesterol]
Kd (GFP-TRKB): ~20 µM

CNC1(c2ccccc2Cl)CCCCC1=O (stereo not drawn) [KET, ketamine]
shift in ocular dominance after 7-day monocular deprivation (mice): significant shift in OD

B1: BDNF: brain-derived neurotrophic factor, TRKB ligand (protein, UniProt P23560 19-247, looked up)
Neurotrophic factor BDNF …: APMKEANIRGQGGLAYPGVRTHGTLESVNGPKAGSRGLTSLADTFEHVIEELLDEDQKVRPNEENNKDADLYTSRVMLSSQVPLEPPLLFLLEEYKNYLDAANMSMRVRRHSDPARRGELSVCDSISEWVTAADKKTAVDMSGGTVTVLEKVPVSKGQLKQYFYETKCNPMGYTKEGCRGIDKRHWNSQCRTTQSYVRALTMDSKKRIGWRFIRIDTSCVCTLTIKRGR
synaptic strength after infusion into the dentate gyrus (Sprague-Dawley rats): significantly increased synaptic strength
